Where two headings read alike, the source gives them in different places. Each block holds one compound with its values, some of them ahead of it.
Tested on: mouse hearts
Assay: Triple parametric optical mapping (Vm, Ca2+, NADH) of Langendorff-perfused mouse hearts during drug treatment
Set-up: Effect on contractions of the heart (electromechanical uncoupling): dose or concentration left out as unconfirmed
Conditions: for APD80 (action potential duration) / CVL (longitudinal conduction velocity) / CVT (transverse conduction velocity) / Ca2+ RT (rise time) / Ca t (calcium decay time constant) / CaTD80 (calcium transient duration) / NADH fluorescence intensity (normalized to first recording of the heart) / Vm-Ca2+ delay / Vm RT (rise time) / AR (anisotropic ratio, CVL to CVT): Blebbistatin 15 μM, Verapamil 1 μM, mean±SEM
Experimental: Langendorff perfusion: Adult male and female mice on C57BL/6 background were used in this study. Mice were anesthetized by isoflurane inhalation and cervical dislocation was performed. Hearts were quickly excised following thoracotomy and the aorta was cannulated. The heart was attached to a Langendorff perfusion system, hung in a vertical position in a temperature-controlled bath and perfused with a modified Tyrode's solution containing (in mM) 130 NaCl, 24 NaHCO3, 1.2 NaH2PO4, 1 MgCl2, 5.6 Glucose, 4 KCl, 1.8 CaCl2, pH 7.40 and bubbled with carbogen (95% 02 and 5% CO2) at 37° C. Perfusion pressure was maintained at ˜80 mmHg by adjusting the flow rate between 1 and 1.5 ml/min. A platinum bipolar electrode was placed at the center of the anterior surface residing the middle of the field of view. Gentle pressure was applied to the back of the heart as it was pushed up to the front optical glass of the bath using a paddle, allowing the pacing electrode to be held in place. Electrical stimuli were applied to determine the threshold of pacing. Hearts were paced at 1.5× pacing threshold amplitude and 2 ms stimulus duration, only during optical recording. Hearts were paced at varying rates as listed in the figures to determine the restitution properties of the heart under each condition.
Optical Mapping: The heart was subjected to a 10 min equilibration period followed by staining with the voltage- and calcium-sensitive dyes. A 1 ml mixture of RH237 ([…] Tyrode's solution, Biotium 61018) was prepared and immediately injected into the dye port above the cannula over a 3-5 min period. This was followed by a 5 min washout period. Similarly, a 1 ml mixture of Rhod2-AM (30 ul of 1 mg/ml dye stock solution+[…] Tyrode's solution, Thermo Fisher Scientific R1244 and Biotium 59005, respectively) was prepared and immediately injected into the dye port over a 3-5 min period. This was followed by 5 min dye washout period.
The heart was then illuminated by two LED excitation light sources at 365 nm and 520±5 nm wavelengths. While the former induces autofluorescence of NADH in the tissue, the latter excites both RH237 and Rhod2-AM dyes. Control optical recordings of NADH, Vm, and Ca^2+ were simultaneously acquired at 1 kHz sampling rate. NADH, Vm, and Ca^2+ are indicative of […].
[…] […] Optical recordings were once again acquired for each of these conditions as described above.
Data Analysis: Optical data of NADH, transmembrane potential and calcium were analyzed using a custom Matlab software, Rhythm 3.0, which is available in an open-source format on Github. Rhythm 3.0 which is an upgraded version of Rhythm 1.2, incorporates NADH visualization and analysis features as well as the ability to calculate delay in transmembrane potential to intracellular calcium activation (Vm-Ca^2+ Delay). Rhythm software was written to analyze data formats generated by SciMedia systems but can be modified to analyze other data formats.
Ten different parameters were measured from the 3 optical signals that were simultaneously recorded under each condition using the Rhythm 3.0 software to determine MECC. The ten parameters include, from transmembrane potential: (1) rise time (Vm RT), (2) action potential duration (APD80), (3) transverse and (4) longitudinal conduction velocity (CVT and CVL) and (5) anisotropic ratio (AR), from intracellular calcium: (6) rise time (Ca^2+ RT), (7) calcium transient duration (CaTD80), (8) calcium decay time constant (t), (9) Vm-Ca^2+ delay and (10) NADH fluorescence intensity.

Compound: COc1ccc(CCN(C)CCCC(C#N)(c2ccc(OC)c(OC)c2)C(C)C)cc1OC (centres unmarked) [Verapamil, verapamil]
APD80 (action potential duration) (BCL 80): 31.06 ± 0.00
CVL (longitudinal conduction velocity) (BCL 80): 0.28 ± 0.00
CVT (transverse conduction velocity) (BCL 80): 0.21 ± 0.00
Ca2+ RT (rise time) (BCL 80): 8.09 ± 0.00
Ca t (calcium decay time constant) (BCL 80): 13.71 ± 0.00
CaTD80 (calcium transient duration) (BCL 80): 60.74 ± 0.00
NADH fluorescence intensity (normalized to first recording of the heart) (BCL 80): 1.04 ± 0.00
Vm-Ca2+ delay (BCL 80): −2.81 ± 0.00
APD80 (action potential duration) (BCL 90): 44.72 ± 9.21
CVL (longitudinal conduction velocity) (BCL 90): 0.35 ± 0.03
CVT (transverse conduction velocity) (BCL 90): 0.18 ± 0.04
Ca2+ RT (rise time) (BCL 90): 8.16 ± 1.36
Ca t (calcium decay time constant) (BCL 90): 17.15 ± 1.92
CaTD80 (calcium transient duration) (BCL 90): 63.46 ± 2.71
NADH fluorescence intensity (normalized to first recording of the heart) (BCL 90): 0.98 ± 0.07
Vm RT (rise time) (BCL 90): 4.65 ± 0.10
Vm-Ca2+ delay (BCL 90): −6.07 ± 2.54
APD80 (action potential duration) (BCL 100): 45.75 ± 10.51
CVL (longitudinal conduction velocity) (BCL 100): 0.60 ± 0.02
CVT (transverse conduction velocity) (BCL 100): 0.23 ± 0.03
Ca2+ RT (rise time) (BCL 100): 9.54 ± 0.43
Ca t (calcium decay time constant) (BCL 100): 20.41 ± 3.36
CaTD80 (calcium transient duration) (BCL 100): 69.61 ± 3.02
NADH fluorescence intensity (normalized to first recording of the heart) (BCL 100): 0.99 ± 0.08
Vm RT (rise time) (BCL 100): 4.70 ± 0.39
Vm-Ca2+ delay (BCL 100): −5.22 ± 1.73
APD80 (action potential duration) (BCL 125, 4-AP 7 mM): 49.46 ± 6.20
CVL (longitudinal conduction velocity) (BCL 125, 4-AP 7 mM): 0.59 ± 0.03
CVT (transverse conduction velocity) (BCL 125, 4-AP 7 mM): 0.28 ± 0.03
Ca2+ RT (rise time) (BCL 125, 4-AP 7 mM): 8.28 ± 0.96
Ca t (calcium decay time constant) (BCL 125, 4-AP 7 mM): 32.14 ± 11.32
CaTD80 (calcium transient duration) (BCL 125, 4-AP 7 mM): 77.16 ± 7.51
NADH fluorescence intensity (normalized to first recording of the heart) (BCL 125, 4-AP 7 mM): 0.99 ± 0.08
Vm RT (rise time) (BCL 125, 4-AP 7 mM): 4.57 ± 0.25
Vm-Ca2+ delay (BCL 125, 4-AP 7 mM): −7.06 ± 4.13
APD80 (action potential duration) (BCL 150, 4-AP 7 mM): 54.39 ± 11.88
CVL (longitudinal conduction velocity) (BCL 150, 4-AP 7 mM): 0.67 ± 0.02
CVT (transverse conduction velocity) (BCL 150, 4-AP 7 mM): 0.29 ± 0.01
Ca2+ RT (rise time) (BCL 150, 4-AP 7 mM): 9.31 ± 0.93
Ca t (calcium decay time constant) (BCL 150, 4-AP 7 mM): 32.38 ± 4.88
CaTD80 (calcium transient duration) (BCL 150, 4-AP 7 mM): 89.183 ± 11.79
NADH fluorescence intensity (normalized to first recording of the heart) (BCL 150, 4-AP 7 mM): 0.99 ± 0.08
Vm RT (rise time) (BCL 150, 4-AP 7 mM): 4.70 ± 0.46
Vm-Ca2+ delay (BCL 150, 4-AP 7 mM): −5.24 ± 2.31
APD80 (action potential duration) (BCL 200, 4-AP 7 mM): 55.28 ± 2.94
CVL (longitudinal conduction velocity) (BCL 200, 4-AP 7 mM): 0.56 ± 0.09
CVT (transverse conduction velocity) (BCL 200, 4-AP 7 mM): 0.30 ± 0.05
Ca2+ RT (rise time) (BCL 200, 4-AP 7 mM): 9.14 ± 1.31
Ca t (calcium decay time constant) (BCL 200, 4-AP 7 mM): 39.09 ± 5.88
CaTD80 (calcium transient duration) (BCL 200, 4-AP 7 mM): 106.68 ± 19.92
NADH fluorescence intensity (normalized to first recording of the heart) (BCL 200, 4-AP 7 mM): 0.99 ± 0.07
Vm RT (rise time) (BCL 200, 4-AP 7 mM): 4.72 ± 0.28
Vm-Ca2+ delay (BCL 200, 4-AP 7 mM): −8.14 ± 4.48

Compound: Nc1ccncc1 [4-AP, 4-aminopyridine]
BCL at which pacing of the hearts was prevented (no 1:1 capture) (4-AP 7 mM in presence of blebbistatin): < 125 ms
Change in CVT (in words) (150 ms BCL, 4-AP 7 mM vs blebbistatin): slowed
Change in Ca2+ RT (in words) (150 ms BCL, blebbistatin vs Control, 4-AP 7 mM vs blebbistatin): prolonged
APD80 (action potential duration) (BCL 125, 4-AP 7 mM): 69.09 ± 7.52
AR (anisotropic ratio, CVL to CVT) (BCL 125, 4-AP 7 mM): 1.80 ± 0.19
CVL (longitudinal conduction velocity) (BCL 125, 4-AP 7 mM): 0.47 ± 0.07
CVT (transverse conduction velocity) (BCL 125, 4-AP 7 mM): 0.27 ± 0.05
Ca2+ RT (rise time) (BCL 125, 4-AP 7 mM): 6.82 ± 1.39
Ca t (calcium decay time constant) (BCL 125, 4-AP 7 mM): 27.106 ± 6.26
CaTD80 (calcium transient duration) (BCL 125, 4-AP 7 mM): 79.32 ± 2.28
NADH fluorescence intensity (normalized to first recording of the heart) (BCL 125, 4-AP 7 mM): 0.98 ± 0.07
Vm RT (rise time) (BCL 125, 4-AP 7 mM): 5.15 ± 0.29
Vm-Ca2+ delay (BCL 125, 4-AP 7 mM): −1.88 ± 1.79
APD80 (action potential duration) (BCL 150, 4-AP 7 mM): 78.13 ± 3.52
AR (anisotropic ratio, CVL to CVT) (BCL 150, 4-AP 7 mM): 1.90 ± 0.45
CVL (longitudinal conduction velocity) (BCL 150, 4-AP 7 mM): 0.53 ± 0.09
CVT (transverse conduction velocity) (BCL 150, 4-AP 7 mM): 0.28 ± 0.05
Ca2+ RT (rise time) (BCL 150, 4-AP 7 mM): 7.05 ± 1.03
Ca t (calcium decay time constant) (BCL 150, 4-AP 7 mM): 30.94 ± 5.51
CaTD80 (calcium transient duration) (BCL 150, 4-AP 7 mM): 88.37 ± 6.37
NADH fluorescence intensity (normalized to first recording of the heart) (BCL 150, 4-AP 7 mM): 0.97 ± 0.06
Vm RT (rise time) (BCL 150, 4-AP 7 mM): 4.94 ± 0.63
Vm-Ca2+ delay (BCL 150, 4-AP 7 mM): −1.71 ± 2.13
APD80 (action potential duration) (BCL 200, 4-AP 7 mM): 84.56 ± 6.68
AR (anisotropic ratio, CVL to CVT) (BCL 200, 4-AP 7 mM): 1.97 ± 0.37
CVL (longitudinal conduction velocity) (BCL 200, 4-AP 7 mM): 0.66 ± 0.06
CVT (transverse conduction velocity) (BCL 200, 4-AP 7 mM): 0.32 ± 0.05
Ca2+ RT (rise time) (BCL 200, 4-AP 7 mM): 7.04 ± 1.57
Ca t (calcium decay time constant) (BCL 200, 4-AP 7 mM): 37.11 ± 11.58
CaTD80 (calcium transient duration) (BCL 200, 4-AP 7 mM): 96.41 ± 8.18
NADH fluorescence intensity (normalized to first recording of the heart) (BCL 200, 4-AP 7 mM): 0.97 ± 0.07
Vm RT (rise time) (BCL 200, 4-AP 7 mM): 4.79 ± 0.23
Vm-Ca2+ delay (BCL 200, 4-AP 7 mM): −1.48 ± 1.38
Change in APD80 (in words) (all tested pacing rates, vs blebbistatin): prolonged

Change in CVT (in words): faster
Change in Ca2+ RT (in words): increased
Change in NADH intensity (in words): reduced
Number of the 10 measured parameters altered: 2
Compound: Cc1ccc2c(c1)C(=O)C1(O)CCN(c3ccccc3)C1=N2 (centres unmarked) [Blebbistatin, blebbistatin]
Effect on contractions of the heart (electromechanical uncoupling) (blebbistatin): abolished contractions

Source: patent publication US20230085578A1, “SYSTEMS AND METHODS FOR TRIPLE-PARAMETRIC OPTICAL MAPPING” (The George Washington University, priority 2021, published 2023)
